Test results: patent JP2006056855A, “免疫賦活剤、抗腫瘍剤、抗老化剤、抗肥満剤及び皮膚化粧料” (Maruzen Pharmaceutical Co Ltd, priority 2004, dated 2006)
Values after ≈ are worked out from the molar mass of the structure shown.

Columns and labels:
[1] = test system: normal human epidermal keratinocytes (NHEK) [正常ヒト皮膚表皮角化細胞(NHEK)]; test: Epidermal keratinocyte proliferation test (試験例4), MTT assay; assay type: cell-based; details: 72 h, sample solution 3.125 μg/mL, 3 days, St/Ct×100 (no sample = 100%), read-out: epidermal keratinocyte proliferation promotion rate
[2] = test system: human breast cancer-derived cells (MCF-7) [ヒト乳癌由来細胞(MCF−7)]; test: Estrogen-like action test (試験例2), MTT assay; assay type: cell-based; details: MCF7, sample solution 3.125 μg/mL, A/B×100 (no sample = 100%), read-out: estrogen-like action rate
[3] = molecular target: cyclic AMP phosphodiesterase [サイクリックAMPホスホジエステラーゼ]; test: Cyclic AMP phosphodiesterase activity inhibition test (試験例5), HPLC; assay type: biochemical; details: sample concentration at 50% inhibition of cyclic AMP phosphodiesterase activity, by interpolation; pH 7.5, 37℃, 30 min
[4] = test system: human normal skin fibroblasts (NB1RGB) [ヒト正常皮膚線維芽細胞(NB1RGB)]; test: Fibroblast proliferation test (試験例3), MTT assay; assay type: cell-based; details: 72 h, sample solution 12.5 μg/mL, 100 μL added per well, 3 days, (St−Sb)/(Ct−Cb)×100 (no sample = 100%), read-out: fibroblast proliferation promotion rate

- IC50 [3]: 178.9 µg/mL (≈ 136 µM)
Structure (SMILES): CC1OC2OC3C(OCC(O)C3O)OC(=O)C34CCC(C)(C)CC3C3=CCC5C6(C)CC(O)C(OC7OC(CO)C(O)C(O)C7OC7OCC(OC(=O)CC(C)(O)CC(=O)OC1C(OC1OCC(O)C(O)C1O)C2O)C(O)C7O)C(C)(CO)C6CCC5(C)C3(C)CC4 (stereo not shown) [ツベイモシドI, ツベイモシドI(tubeimoside I)]
- activity at 3.125 µg/mL [1]: 139.4 ± 1.3%
- activity at 3.125 µg/mL [2]: 132 ± 3%
- activity at 12.5 µg/mL [4]: 127 ± 2.3%
